Test results reported in ChEMBL document CHEMBL1133305, “Phenyloxazoles and phenylthiazoles as benzamide bioisosteres: synthesis and dopamine receptor binding profiles” (Bioorg Med Chem Lett, 2000).

Legend:
D(2) dopamine receptor [1] = biological target: T1, D(2) dopamine receptor (Homo sapiens, UniProt P14416); experiment: In vitro displacement of [3H]spiperone from the recombinant human dopamine receptor D2 short form expressed in CHO cells; format: cell-based
D(4) dopamine receptor = biological target: T2, D(4) dopamine receptor (Homo sapiens, UniProt P21917); experiment: In vitro displacement of [3H]spiperone from the recombinant human dopamine receptor D4 expressed in CHO cells; format: cell-based
T2 sequence (P21917 whole entry): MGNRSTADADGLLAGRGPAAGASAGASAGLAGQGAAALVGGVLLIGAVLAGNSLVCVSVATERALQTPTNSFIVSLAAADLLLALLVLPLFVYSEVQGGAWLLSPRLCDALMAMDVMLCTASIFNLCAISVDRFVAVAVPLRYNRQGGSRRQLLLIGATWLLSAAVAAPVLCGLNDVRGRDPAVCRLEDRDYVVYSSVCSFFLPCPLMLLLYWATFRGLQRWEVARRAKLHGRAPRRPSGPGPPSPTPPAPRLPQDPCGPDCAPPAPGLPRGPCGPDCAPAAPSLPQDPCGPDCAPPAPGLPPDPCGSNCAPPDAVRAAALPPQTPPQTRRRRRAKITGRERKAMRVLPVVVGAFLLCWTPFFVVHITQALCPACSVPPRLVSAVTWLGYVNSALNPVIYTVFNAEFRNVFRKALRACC

D(2) dopamine receptor [2] = biological target: T1, D(2) dopamine receptor; experiment: In vitro displacement of [3H]spiperone from the recombinant human dopamine receptor D2L stably expressed in CHO cells; format: cell-based
D(1A) dopamine receptor = D(1A) dopamine receptor (Bos taurus, UniProt Q95136); experiment: In vitro displacement of [3H]- SCH 23390 from the dopamine receptor D1 of bovine striatal membrane
D(3) dopamine receptor = D(3) dopamine receptor (Homo sapiens, UniProt P35462); experiment: In vitro displacement of [3H]spiperone from the cloned human dopamine receptor D3 stably expressed in CHO cells; format: cell-based
Chain of D(3) dopamine receptor (P35462 whole entry): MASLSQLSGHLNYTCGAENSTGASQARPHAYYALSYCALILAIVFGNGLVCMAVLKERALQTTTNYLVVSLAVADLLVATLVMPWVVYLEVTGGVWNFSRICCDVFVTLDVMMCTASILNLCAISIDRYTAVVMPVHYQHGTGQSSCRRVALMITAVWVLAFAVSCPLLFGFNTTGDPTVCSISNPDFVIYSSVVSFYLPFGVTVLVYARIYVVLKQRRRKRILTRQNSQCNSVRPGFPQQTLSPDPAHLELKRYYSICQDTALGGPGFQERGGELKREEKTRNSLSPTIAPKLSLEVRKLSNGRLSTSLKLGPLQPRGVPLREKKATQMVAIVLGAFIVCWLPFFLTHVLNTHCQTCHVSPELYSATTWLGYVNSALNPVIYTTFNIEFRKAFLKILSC

Chain of D(1A) dopamine receptor (Q95136 whole entry): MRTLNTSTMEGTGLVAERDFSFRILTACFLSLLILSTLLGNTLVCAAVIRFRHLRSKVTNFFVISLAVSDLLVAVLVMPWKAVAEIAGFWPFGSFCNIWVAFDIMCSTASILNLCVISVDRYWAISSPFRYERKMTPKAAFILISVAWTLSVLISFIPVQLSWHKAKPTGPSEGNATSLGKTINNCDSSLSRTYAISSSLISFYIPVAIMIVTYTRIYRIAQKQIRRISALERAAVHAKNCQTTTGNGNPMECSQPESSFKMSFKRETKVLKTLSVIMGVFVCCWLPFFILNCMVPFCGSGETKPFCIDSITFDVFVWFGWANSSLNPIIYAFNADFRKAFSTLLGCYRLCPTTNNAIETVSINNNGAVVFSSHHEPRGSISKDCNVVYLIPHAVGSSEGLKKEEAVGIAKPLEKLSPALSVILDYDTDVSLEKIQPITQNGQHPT
T1 sequence (P14416 whole entry): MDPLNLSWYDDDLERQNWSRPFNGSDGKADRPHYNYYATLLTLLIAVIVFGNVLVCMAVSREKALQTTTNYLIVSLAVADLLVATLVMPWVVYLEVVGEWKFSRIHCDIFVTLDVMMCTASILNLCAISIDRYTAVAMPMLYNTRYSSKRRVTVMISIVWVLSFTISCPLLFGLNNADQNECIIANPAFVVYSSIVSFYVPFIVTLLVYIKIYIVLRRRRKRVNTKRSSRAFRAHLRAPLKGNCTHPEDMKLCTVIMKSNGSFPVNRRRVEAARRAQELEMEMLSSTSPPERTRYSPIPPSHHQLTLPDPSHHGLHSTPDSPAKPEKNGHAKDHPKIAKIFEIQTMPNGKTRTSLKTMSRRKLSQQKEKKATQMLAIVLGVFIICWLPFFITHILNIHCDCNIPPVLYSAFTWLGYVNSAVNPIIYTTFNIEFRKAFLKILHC

| Ki (D(2) dopamine receptor [1]) [µM] | Ki (D(4) dopamine receptor) [µM] | Ki (D(2) dopamine receptor [2]) [µM] | Ki (D(1A) dopamine receptor) [µM] | Ki (D(3) dopamine receptor) [µM] | Ki (D(4) dopamine receptor; cho) [µM] | SMILES |
| --- | --- | --- | --- | --- | --- | --- |
| 0.21 | 0.02 | 0.51 | 6.75 | 0.083 |  | COc1ccc(Br)cc1-c1nc(CNC[C@@H]2CCN(Cc3ccccc3)C2)co1 [listing 1 of 2 here] |
| 6.6 | 0.51 | 8.25 | 16 | 1.85 |  | COc1ccc(Br)cc1-c1nc(CN[C@@H]2CCN(Cc3ccccc3)C2)co1 [listing 1 of 2 here] |
| 0.31 | 0.15 | 0.51 | 6.6 | 0.075 |  | COc1ccc(Br)cc1-c1nc(CNCCC2CCN(Cc3ccccc3)C2)co1 (stereo not given) |
| 0.092 | 0.15 | 0.185 | 4 | 0.22 |  | COc1ccc(Br)cc1-c1nc(CNC[C@@H]2CCN(Cc3ccccc3)C2)cs1 [listing 1 of 2 here] |
| 0.63 | 0.39 | 0.94 | 12.5 | 0.58 |  | COc1ccc(Br)cc1-c1nc(CNC2CCN(Cc3ccccc3)CC2)co1 |
| 0.085 | 0.37 | 0.21 | 10.5 | 0.64 |  | COc1ccc(Br)cc1-c1nc(CN2CCN(Cc3ccccc3)CC2)cs1 |
| 1.75 | 0.25 | 3 | 11.5 | 3.95 |  | c1ccc(-c2nc(CN3CCN(c4ccccc4)CC3)co2)cc1 |
| 13.5 | 0.053 | 23 | 6.8 | 2.3 |  | c1ccc(CN2CCC(NCc3csc(-c4ccccc4)n3)CC2)cc1 |
| 8.65 | 0.35 | 14 | 30 | 6.1 |  | c1ccc(CN2CCC(NCc3coc(-c4ccccc4)n3)CC2)cc1 |
| 17.5 | 15.5 | 45.5 | 100 | 5.85 |  | COc1c(-c2nc(CNC[C@@H]3CCN(Cc4ccccc4)C3)co2)cc(Br)c2ccccc12 |
| 0.245 | 0.011 | 0.32 | 3.5 | 0.065 |  | COc1ccc(Br)cc1-c1nc(CNC[C@@H]2CCN(Cc3ccccc3)C2)co1 [listing 2 of 2 here] |
| 0.105 | 0.4 | 0.195 | 4.5 | 0.205 |  | COc1ccc(Br)cc1-c1nc(CNC2CCN(Cc3ccccc3)CC2)cs1 |
| 21.5 | 1.45 | 27.5 | 72 | 8.4 |  | c1ccc(CN2CCN(Cc3coc(-c4ccccc4)n3)CC2)cc1 |
| 4.4 | 0.58 | 6.65 | 17.5 | 7.6 |  | Oc1ccc(Br)cc1-c1nc(CN2CCN(c3ccccc3)CC2)co1 |
| 19.5 | 0.59 | 28 | 9.2 | 5.25 |  | c1ccc(CN2CCN(Cc3csc(-c4ccccc4)n3)CC2)cc1 |
| 0.28 | 0.17 | 0.42 | 4.95 | 0.115 |  | COc1ccc(Br)cc1-c1nc(CNC[C@@H]2CCN(Cc3ccccc3)C2)cs1 [listing 2 of 2 here] |
| 0.33 | 0.37 | 0.69 | 4.85 | 0.66 |  | COc1ccc(Br)cc1-c1nc(CN2CCN(c3ccccc3)CC2)co1 |
| 0.44 | 0.59 | 0.61 | 1.25 | 1.19 |  | COc1ccc(Br)cc1-c1nc(CN2CCN(c3ccccc3)CC2)cs1 |
| 1.06 | 0.45 | 2.3 | 19.5 | 2.05 |  | c1ccc(-c2nc(CN3CCN(c4ccccc4)CC3)cs2)cc1 |
| 2.75 | 1.11 | 6.25 | 8.9 | 1.3 |  | COc1ccc(Br)cc1-c1ncc(CNC[C@@H]2CCN(Cc3ccccc3)C2)[nH]1 |
| 3.25 | 0.65 | 3.8 | 5.45 | 1.2 |  | COc1ccc(Br)cc1-c1nc(CN(C)C[C@@H]2CCN(Cc3ccccc3)C2)co1 |
| 0.79 | 0.71 | 1.5 | 15.5 | 1.05 |  | COc1ccc(Br)cc1-c1nc(CN2CCN(Cc3ccccc3)CC2)co1 |
| 2 | 0.039 | 2.45 | 8 | 1.7 |  | COc1ccc(Br)cc1-c1nc(CN[C@@H]2CCN(Cc3ccccc3)C2)co1 [listing 2 of 2 here] |
| 1.1 | 0.17 | 1.07 | 8.95 | 0.12 |  | COc1ccc(Br)cc1-c1nc(CNCC[C@@H]2CCN(Cc3ccccc3)C2)co1 |
| 6.4 |  | 7.95 | 13.5 | 0.88 | 0.39 | c1ccc(CN2CC[C@@H](CNCc3csc(-c4ccccc4)n3)C2)cc1 (stereo in doubt) |
| 5.05 | 0.39 | 7.9 | 8.85 | 0.66 |  | c1ccc(CN2CC[C@@H](CNCc3csc(-c4ccccc4)n3)C2)cc1 (stereo in doubt; 4q) |
